Where a name gives a salt, the structure may show the parent alone. Read-outs that look alike come from different tables or passages of the source.
Assays:
[1] = molecular target: low affinity glucocorticoid binding site (LAGS) in rat liver microsomes (Rattus norvegicus, UniProt P70580); assay: Competition with radiolabelled dexamethasone for specific binding to rat liver microsomes (LAGS activity); conditions: for IC50: vs radiolabelled dexamethasone
Method: A small volume of each incubation was removed to determine the total ligand concentration ([L0]) prior to removal of free unbound ligand by dextran/charcoal adsorption. […] Free ligand concentration at equilibrium was calculated by subtracting specifically bound ligand at equilibrium from the total ligand concentration (i.e. [L0] - [LRe]) and assumes receptor-ligand stoichiometry of 1:1.
In brief, rats were anaesthetized with pentobarbital and a 16G cannula inserted into the hepatic portal vein and secured. […] The liver was then excised and chopped roughly with ice-cooled TS buffer (10 mM Tris/HCl pH 7.4 containing 250 mM sucrose) and disrupted using a Potter-Elvehjem homogenisor. The resultant homogenate was then centrifuged at 12,000 g for 20 minutes at 4°C and the supernatant retained and centrifuged at 100,000 g for 60 minutes at 4°C. The resultant "microsomal" pellet was re-suspended in fresh TS buffer and re-centrifuged at 100,000 g to obtain a washed microsomal pellet. […] After overnight incubation on ice, free ligand was removed by charcoal dextran adsorption and bound radioligand determined in supernatants by liquid scintillation, essentially as previously described.

[2] = system: human HSCs; assay: Human HSC trans-differentiation/proliferation (confluence, α-sma); format: cell-based; conditions: confluence at day 12
Method: (§1) Figure 5 Screening for inhibitors of trans-differentiation in rat and human HSCs – Part 1. Rat HSCs were isolated and cultured for 2 days (T0) whereupon cells were treated with the indicated compound as outlined in methods section. After 9 days, cells were analyzed by Western blotting for α-smooth muscle actin (α-sma). Each lane contains 10 μg total protein/lane, results typical of at least 3 separate experiments (a). Human HSCs were treated with the indicated compound and confluence determined in randomly selected fields. Data are the mean and standard deviation confluence at day 12 of 3 separate treatment dishes from the same donor, typical of at least 3 separate donors (b).
Figure 6 Screening for inhibitors of trans-differentiation in rat and human HSCs – Part 2. Photomicrographs of human HSCs at day 12 of culture with the indicated treatment (a); levels of expression of α-smooth muscle actin (α-sma) (b) and levels of expression of fibrogenic marker mRNA transcripts in human HSCs after treatment selected compounds for 19 days. Data are the mean and standard deviation relative transcript level from 3 separate treatments on cells from the same donor, typical of at least 3 separate donors (c).
(§2) HSCs were isolated from rats (250–300 g body weight, Harlan, UK) by sequential pronase/collagenase perfusion of the liver followed by density gradient centrifugation and elutriation as previously outlined. Human HSCs were isolated by an essentially similar procedure using discarded tissue from patients undergoing a hepatectomy with patient consent and ethical approval by the Grampian Regional Ethical Committee. HSCs were seeded onto plastic culture dishes and cultured in Dulbecco's modified Eagle Medium (DMEM) containing 4.5 g/l of glucose and supplemented with 5% or 16% (v/v) fetal calf serum (for rat or human respectively), […] penicillin, 80 μg/ml streptomycin and 32 μg/ml gentamycin. Additional treatments were made by addition of compounds in an ethanol vehicle (stock solutions at 1000× final concentration). Ethanol at 0.1% (v/v) acted as control. Frequency of treatment (3 treatments per week/2 medium changes per week), as previously described.

[3] = molecular target: T1, rPGRMC1 (Rattus norvegicus, UniProt P70580); assay: Dexamethasone binding competition in COS-7 cells transfected with pSG5-rPGRMC1; conditions: unlabelled competitor, Fig. 2e
T1 construct: the full length cDNA for rPGRMC1 was cloned from rat myofibroblasts and expressed in COS-7 cells; expressed in transfected cells; host or cells: COS-7 cells transfected with pSG5-rPGRMC1
Method: Western blot for rPGRMC1 in various cell fractions using the anti-IZ Ab in COS-7 cells transfected with the indicated construct. All lanes were loaded with 10 μg protein/lane. Note, HC5 is a truncated form of rPGRMC1 cloned from rat kidney (a). Western blot for rPGRMC1 using the anti-IZ Ab and CYP2E1 (lower blot). Rat hepatocytes were cultured for 24 hours to allow attachment (T0) and then treated for 24 hours with the indicated ligand or ethanol vehicle prior to analysis. Each lane contains 10 μg total protein/well, typical of 3 separate experiments (b). […] The percentage of cells that stained positive for beta galactosidase activity (grey bars) was determined in situ in separate wells by examining at least 5 randomly selected low power fields. […] The percent of binding in the presence of unlabelled competitors was determined after subtraction of non-specific binding. […]
COS-7 cells were transfected at 30–50% confluency using Effectene transfection reagent (Qiagen, Southampton, UK) essentially according to the manufacturer's instructions with either pSG5 empty vector, pSG5-rPGRMC1 or the β-galactosidase-encoding pcDNA3.1e/lacZ vector (Invitrogen, Paisley, UK). Thirty hours after transfection, β-galactosidase activity was determined in fixed cells,in situ. […]

[4] = system: rat HSCs; assay: Rat HSC-to-myofibroblast trans-differentiation (α-smooth muscle actin Western blot); format: cell-based; conditions: α-sma Western blot after 9 days of treatment
Method: as §1, §2

[5] = system: CYP3A1/3A23; assay: Screening for PXR activators in rat hepatocytes via CYP3A induction (Western blot); format: cell-based; conditions: 10 μM for 24 hours (PCN 20 μM), Western blot
[6] = molecular target: progesterone binding protein in pig liver microsomes; conditions: read-out: IC50% for competition for progesterone binding protein; cited from earlier work
[7] = system: CYP3A4; assay: Screening for PXR activators in human hepatocytes via CYP3A induction (Western blot); format: cell-based; conditions: 24 hours treatment, Western blot
[8] = system: human myofibroblasts; assay: Fibrogenic marker mRNA transcripts (TGFβ, TIMP1, collagen 1A1) in human myofibroblasts, qRT-PCR; format: cell-based; conditions: treatment for 19 days
Excerpt: Quantitative transcript expression was examined after reverse transcription (using a Taqman reverse transcription kit (Applied Biosystems)) using a PE Applied Biosystems ABI7700 and PE Applied Biosystems Gene Expression Assay™, incorporating sequence-specific forward, reverse and fluorescently labelled probes (see Table 2).

[9] = read-out: IC50% (competition of substituted progestins for binding to rat liver microsomes), Additional file 1
[10] = read-out: IC50% (competition of dexamethasone derivatives for binding to rat liver microsomes), Additional file 2

Sequence of low affinity glucocorticoid binding site (LAGS) in rat liver microsomes (P70580 2-195): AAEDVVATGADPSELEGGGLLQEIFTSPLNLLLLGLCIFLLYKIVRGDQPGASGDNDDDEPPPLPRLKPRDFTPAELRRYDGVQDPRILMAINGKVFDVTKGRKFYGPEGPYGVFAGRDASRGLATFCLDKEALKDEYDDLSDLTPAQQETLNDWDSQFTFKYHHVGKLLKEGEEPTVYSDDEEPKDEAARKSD
T1 sequence (P70580 whole entry): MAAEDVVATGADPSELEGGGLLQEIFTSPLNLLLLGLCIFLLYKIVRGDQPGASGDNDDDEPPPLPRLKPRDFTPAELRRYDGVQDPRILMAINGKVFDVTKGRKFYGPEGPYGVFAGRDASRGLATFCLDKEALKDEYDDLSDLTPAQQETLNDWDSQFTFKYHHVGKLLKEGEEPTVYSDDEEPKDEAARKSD

In the case of `CCOC(=O)[C@H]1CC[C@H]2[C@@H]3CCC4=CC(=O)CC[C@]4(C)[C@H]3CC[C@]12C` [4 androstene-3-one 17β-carboxylic acid ethyl ester], the IC50 [1, 9] is reported as 0.1 µM.
Work on `CC(=O)O[C@@H]1C=C2CC[C@H]3[C@@H]4CC[C@H](C(C)=O)[C@@]4(C)CC[C@@H]3[C@@]2(C)CC1` [4 pregnene-3β-ol-20-one acetate] yielded an IC50 [1, 9] of 0.5 µM.
With `CC(=NOCC(=O)O)[C@H]1CC[C@H]2[C@@H]3CCC4=C[C@@H](O)CC[C@]4(C)[C@H]3CC[C@]12C` [4 pregnene-3β-ol-20-one carboxymethyloxime] the IC50 [1, 9] was > 100 µM.
`CC(=O)[C@H]1CC[C@H]2[C@@H]3CCC4=C[C@@H](O)CC[C@]4(C)[C@H]3CC[C@]12C` [4 pregnene-3β-ol-20-one] showed an IC50 [1, 9] of 0.5 µM.
`CC(=O)[C@H]1CC[C@H]2[C@@H]3C[C@@H](O)C4=CC(=O)CC[C@]4(C)[C@H]3CC[C@]12C` [6α-hydroxyprogesterone] showed an IC50 [1, 9] of 5 µM.
`CC(=O)[C@H]1CC[C@H]2[C@@H]3C[C@@H](O)C4=CC(=O)CC[C@]4(C)[C@H]3CC[C@]12C` [6β-hydroxyprogesterone] gave an IC50 [1, 9] of 10 µM.
`CC(=O)O[C@@H]1C[C@H]2[C@@H]3CC[C@H](C(C)=O)[C@@]3(C)CC[C@@H]2[C@@]2(C)CCC(=O)C=C12` [6β-progesterone acetate] showed an IC50 [1, 9] of 0.5 µM.
In the case of `CC(=O)[C@H]1CC[C@H]2[C@@H]3CCC4=CC(=O)CC[C@]4(C)[C@H]3[C@H](O)C[C@]12C` [11α-hydroxyprogesterone], the IC50 [1, 9] is reported as 0.1 µM.
For `CC(=O)O[C@@H]1C[C@]2(C)[C@@H](C(C)=O)CC[C@H]2[C@@H]2CCC3=CC(=O)CC[C@]3(C)[C@H]21` [11α-progesterone acetate], the IC50 [1, 9] was 0.1 µM.
`CC(=O)[C@H]1CC[C@H]2[C@@H]3CCC4=CC(=O)CC[C@]4(C)[C@H]3[C@H](OS(=O)(=O)c3ccc(C)cc3)C[C@]12C` [11α-progesterone tosylate] showed an IC50 [1, 9] of 10 µM.
In the case of `CC(=O)[C@H]1CC[C@H]2[C@@H]3CCC4=CC(=O)CC[C@]4(C)[C@H]3[C@@H](O)C[C@]12C` [11β-hydroxyprogesterone], the “inhibitory activity on human HSC trans-differentiation” value [2] is reported as “significant inhibitory activity”.
With `CC1CC2C3CCC4=CC(=O)C=CC4(C)C3(F)C(O)CC2(C)C1(O)C(=O)O` (stereo not drawn) [17β-carboxylic acid derivative, 9α-fluoro 16α-methyl-11β,17α-dihydroxy-1,4-pregn-3-one 17-carboxylic acid] the IC50 [1, 10] was 100 µM.
With `CC(=O)[C@H]1[C@H](C#N)C[C@H]2[C@@H]3CC=C4C[C@@H](O)CC[C@]4(C)[C@H]3CC[C@@]21C` [PCN, pregnenolone 16α carbonitrile] the “competition with dexamethasone for binding to COS-7 cell extracts over-expressing rPGRMC1” value [3] was “significant competition”, the “inhibition of rat HSC trans-differentiation” value [4] was “inhibited” and the “CYP2E expression in rat hepatocytes” value [5] was “no affect”. For the same compound, the “CYP3A1/3A23 expression (induction) in rat hepatocytes” value [5] was “induced”.
For `C[C@]12CCC(=O)C=C1CC[C@@H]1[C@@H]2CC[C@]2(C)C(=O)CC[C@@H]12` [androstenedione, reference compound], the IC50 [1, 9] was 5 µM.
For `C[C@@H]1C[C@H]2[C@@H]3CCC4=CC(=O)C=C[C@]4(C)[C@@]3(F)[C@@H](O)C[C@]2(C)[C@@]1(O)C(=O)COS(C)(=O)=O` [dexamethasone mesylate], the IC50 [1, 10] was 10 µM.
For `C[C@@H]1C[C@H]2[C@@H]3CCC4=CC(=O)C=C[C@]4(C)[C@@]3(F)[C@@H](O)C[C@]2(C)[C@@]1(O)C(=O)CO` [dexamethasone, reference compound], the IC50 [6] is given as > 100 µM and the “maximal binding site concentration” value ([1]; radiolabelled dexamethasone, rat liver microsomes) is given as 8.3 pmoles/mg of microsomal protein.
For `C[C@H]1C[C@@H]2[C@H]([C@@H](O)C[C@@]3(C)[C@H]2CC[C@]3(O)C(=O)CO)[C@@]2(C)C=CC(=O)C=C12` [methylprednisolone, reference compound], the “CYP3A4 expression (induction) in human hepatocytes” value [7] was “evidence of induction”.
In the case of `CC(=O)[C@H]1CC[C@H]2[C@@H]3CCC4=CC(=O)CC[C@]4(C)[C@H]3CC[C@]12C` [progesterone, reference compound], the “inhibition of rat HSC trans-differentiation” value [4] is reported as “markedly inhibited”, the “inhibitory activity on human HSC trans-differentiation” value [2] is reported as “significant inhibitory activity” and the “competition for dexamethasone binding to rat liver microsomes (in words)” value ([1]; rat liver microsomes) is reported as “competed”.
With `CO[C@H]1/C=C/O[C@@]2(C)Oc3c(C)c(O)c4c(O)c(c(/C=N/N5CCN(C)CC5)c(O)c4c3C2=O)NC(=O)/C(C)=C\C=C\[C@H](C)[C@H](O)[C@@H](C)[C@@H](O)[C@@H](C)[C@H](OC(C)=O)[C@@H]1C` [rifampicin, reference compound] the “expression of TGFβ, TIMP1 and collagen 1A1 mRNAs in human myofibroblasts” value [8] was “inhibited the expression of all mRNAs” and the “inhibitory activity on human HSC trans-differentiation” value [2] was “significant inhibitory activity”.
With `CCC(=O)O[C@H]1CC[C@H]2[C@@H]3CCC4=CC(=O)CC[C@]4(C)[C@H]3CC[C@]12C` [testosterone proprionate, reference compound] the IC50 [1, 9] was 10 µM.
In the case of biotinylated dexamethasone, the IC50 [1, 10] is reported as > 100 µM.

Reference: article PMC2688476, “Low affinity glucocorticoid binding site ligands as potential anti-fibrogenics” (Comparative Hepatology, 2009)
